According to PMC8955020, “Pharmacokinetics of Nafamostat, a Potent Serine Protease Inhibitor, by a Novel LC-MS/MS Analysis” (Molecules, 2022):
Where two headings read alike, the source gives them in different places.

Experiments:
[1] = Pharmacokinetics of nafamostat in rats after intravenous injection and oral administration (LC-MS/MS, non-compartmental); assay type: in vivo; settings: rat
Protocol: Therefore, nafamostat dissolved in 5% DMSO was administered by intravenous injection via penile vein at a dose of 2 mg/kg (n = 5). For oral administration, nafamostat was dissolved in two types of vehicles: (1) 10% DMSO, (2) 10% DMSO with 10% Tween 80, and orally administered at a dose of 20 mg/kg (n = 5). […] The animal study was approved by the Ethics Committee for the Treatment of Laboratory Animals at Sungkyunkwan University (SKKUIACUC2021-01-57-1) and conducted in accordance with the standard operating procedures (SOPs). Male Sprague–Dawley rats (7 weeks, 188–204 g; DBL, Eumseong, Korea) were kept in plastic cages with free access to a standard diet (Cargill Agri Purina, Seongnam, Korea) and water. The animals were maintained at a temperature of 23 ± 2 °C with a 12 h light–dark cycle and relative humidity of 50 ± 10%. Nafamostat dissolved in 5% DMSO (1 mg/mL) was administered by intravenous injection via penile vein at a dose of 2 mg/kg (n = 5). Approximately 0.3 mL of the venous blood samples were collected at 5, 10, 15, 30 min, 1, 1.5, 2, 3, 4, 6, 8, and 12 h after drug administration directly from the jugular vein. For oral administration, nafamostat was dissolved in two types of vehicle: (1) 10% DMSO, (2) 10% DMSO with 10% Tween 80. The prepared nafamostat solution in Vehicle 1 or Vehicle 2 was orally administered at a dose of 20 mg/kg (n = 5). Approximately 0.3 mL of the venous blood samples were collected at 15, 30, 45 min, 1, 1.5, 2, 3, 4, 6, 8, and 12 h after drug administration directly from the jugular vein. Plasma samples were obtained by centrifugation of the blood samples at 15,000× g for 5 min. Finally, 150 μL of the plasma samples were mixed with 3 μL of the 5.5 mol/L HCl and stored at −20 °C until analysis. The plasma nafamostat concentration–time data were analyzed by a non-compartmental method using the nonlinear least-squares regression program, Phoenix WinNonlin (Version 6.4, Certara, L.P., Princeton, NJ, USA).

[2] = Effect of pH on stability of nafamostat in plasma under different storage conditions; assay type: in vitro ADME, rat; settings: 160 ng/mL in plasma
Protocol: Nafamostat in the biological fluid is highly unstable because it is rapidly hydrolyzed by erythrocytes in the blood, as well as by arylesterase in the plasma. Quick plasma preparation is one of the general stabilization strategies for unstable compounds in the biological matrices. Therefore, to prevent the hydrolysis of nafamostat by erythrocytes after acquiring the blood samples, the centrifugation time of the blood samples was shortened from 10 to 5 min. In addition, the stability of nafamostat was examined by modulating the pH of plasma samples to determine the optimal pH to minimize the enzymatic hydrolysis. […] Nafamostat concentrations were also determined under various storage conditions, i.e., (A) immediately, (B) after 24 h left at room temperature, (C) after being subjected to five freeze–thaw cycles, and (D) after 10 days at −20 °C. […] Accordingly, once plasma samples were collected, 3 µL of 5.5 mol/L HCl was added to 150 µL of the collected plasma samples to keep the plasma samples in 0.35% HCl (pH = 1.2).

[3] = Stability of nafamostat in rat plasma (autosampler, freeze/thaw, short-term, long-term); assay type: in vitro ADME; settings: for Percentage over Theoretical Concentration, Long-Term Stability: 2 weeks; for Percentage over Theoretical Concentration, Freeze/Thaw Stability: 5 cycles; for Percentage over Theoretical Concentration, Autosampler Stability / Percentage over Theoretical Concentration, Short-Term Stability: 24 h; for Percentage over Theoretical Concentration, Autosampler Stability: 4 °C; for Percentage over Theoretical Concentration, Short-Term Stability: 20 °C
Protocol: The stability of the nafamostat in the rat plasma was determined under four different storage conditions. […] The stability of nafamostat and IS was examined under four different conditions using three replicates of low, medium, and high QC samples in the rat plasma. The autosampler stability was determined by analyzing the QC samples left in the autosampler at 4 °C for 24 h. The freeze–thaw stability was determined by analyzing the QC samples subject to five freeze–thaw cycles. The short-term stability was determined by analyzing the QC samples left at room temperature for 24 h. […] All stability data were expressed as the percentage of the mean response of the QC samples for stability tests vs. those of the freshly prepared samples at the same concentrations.

[4] = set-up: method as in PMID 18392693; settings: humans; cited from earlier work
[5] = male, Sprague-Dawley, plasma, iv, 2 mg/kg, IV injection 2 mg/kg in 5% DMSO
[6] = male, Sprague-Dawley, plasma, po, 20 mg/kg, oral 20 mg/kg, vehicle 1: 10% DMSO
[7] = male, Sprague-Dawley, plasma, po, 20 mg/kg, oral 20 mg/kg, vehicle 2: 10% DMSO + 10% Tween 80
[8] = IV injection 2 mg/kg in 5% DMSO

## N=C(N)c1ccc2cc(OC(=O)c3ccc(N=C(N)N)cc3)ccc2c1 [nafamostat, 6′-amidino-2-naphthyl 4-guanidinobenzoate]
[1]; male, Sprague-Dawley, plasma, IV injection 2 mg/kg in 5% DMSO, read-out: Vss
  Vd: 0.99 ± 0.65 L/kg
[1]; male, Sprague-Dawley, plasma, oral 20 mg/kg, vehicle 2: 10% DMSO + 10% Tween 80, read-out: CL or CL/F
  CL/F: 319 ± 119 L/h/kg
[1]; [5]
  AUC(0-inf): 447 ± 35.9 ng·h/mL
  half-life: 1.39 h
[1]; male, Sprague-Dawley, plasma, iv, 2 mg/kg, IV injection 2 mg/kg in 5% DMSO, plasma, read-out: C0 or Cmax
  Cmax: 5290 ± 808 ng/mL
[1]; [6]
  AUC(0-inf): 42.4 ± 12.5 ng·h/mL
  Tmax: 0.45 ± 0.21 h
  bioavailability: 0.95 ± 0.25%
  half-life: 2.21 ± 1.3 h
[1]; male, Sprague-Dawley, plasma, po, 20 mg/kg, oral 20 mg/kg, vehicle 1: 10% DMSO, read-out: C0 or Cmax
  Cmax: 27.8 ± 8.17 ng/mL
[1]; [7]
  AUC(0-inf): 71.2 ± 29.9 ng·h/mL
  Tmax: 1 ± 0.53 h
  bioavailability: 1.59 ± 0.6%
  half-life: 2.3 ± 1.11 h
[1]; male, Sprague-Dawley, plasma, po, 20 mg/kg, oral 20 mg/kg, vehicle 2: 10% DMSO + 10% Tween 80, read-out: C0 or Cmax
  Cmax: 33.2 ± 18.8 ng/mL
[1]; [8]
  CL or CL/F: 4.495 ± 0.367 L/h/kg
  Vz or Vz/F: 8.75 ± 3.80 L/kg
[1]; IV injection 2 mg/kg in 5% DMSO, plasma, 2 mg/kg
  t1/2: 1.34 ± 0.51 h
[1]; oral 20 mg/kg, vehicle 1: 10% DMSO
  Vz or Vz/F: 1906.08 ± 1841.14 L/kg
[1]; oral 20 mg/kg, vehicle 2: 10% DMSO + 10% Tween 80
  Vz or Vz/F: 998.85 ± 401.04 L/kg
[1]; oral administration 20 mg/kg, both vehicles
  time to reach peak concentration (Cmax): ≤ 1.0 h
[2]; 0.1% ammonium hydroxide (pH = 10.5), A: immediately
  stability (observed vs theoretical concentration): 29.29 ± 1.26%
[2]; 0.1% ammonium hydroxide (pH = 10.5), B: after 24 h at room temperature
  stability (observed vs theoretical concentration): 0.09 ± 0.01%
[2]; 0.1% ammonium hydroxide (pH = 10.5), C: after 5 freeze-thaw cycles
  stability (observed vs theoretical concentration): 5.21 ± 0.32%
[2]; 0.1% ammonium hydroxide (pH = 10.5), D: after 10 days at −20 °C
  stability (observed vs theoretical concentration): 0.13 ± 0.08%
[2]; 0.1% formic acid (pH = 2.8), A: immediately
  stability (observed vs theoretical concentration): 66.56 ± 3.73%
[2]; 0.1% formic acid (pH = 2.8), B: after 24 h at room temperature
  stability (observed vs theoretical concentration): 0.16 ± 0.05%
[2]; 0.1% formic acid (pH = 2.8), C: after 5 freeze-thaw cycles
  stability (observed vs theoretical concentration): 48.25 ± 2.26%
[2]; 0.1% formic acid (pH = 2.8), D: after 10 days at −20 °C
  stability (observed vs theoretical concentration): 0.12 ± 0.07%
[2]; 0.35% HCl (pH = 1.2), A: immediately
  stability (observed vs theoretical concentration): 103.67 ± 0.60%
[2]; 0.35% HCl (pH = 1.2), B: after 24 h at room temperature
  stability (observed vs theoretical concentration): 104.42 ± 2.50%
[2]; 0.35% HCl (pH = 1.2), C: after 5 freeze-thaw cycles
  stability (observed vs theoretical concentration): 103.12 ± 2.19%
[2]; 0.35% HCl (pH = 1.2), D: after 10 days at −20 °C
  stability (observed vs theoretical concentration): 107.15 ± 0.69%
[2]; 1.0% formic acid (pH = 2.2), A: immediately
  stability (observed vs theoretical concentration): 97.66 ± 6.58%
[2]; 1.0% formic acid (pH = 2.2), B: after 24 h at room temperature
  stability (observed vs theoretical concentration): 100.05 ± 1.83%
[2]; 1.0% formic acid (pH = 2.2), C: after 5 freeze-thaw cycles
  stability (observed vs theoretical concentration): 101.86 ± 1.51%
[2]; 1.0% formic acid (pH = 2.2), D: after 10 days at −20 °C
  stability (observed vs theoretical concentration): 105.67 ± 0.59%
[2]; saline (pH = 5.5), A: immediately
  stability (observed vs theoretical concentration): 63.47 ± 2.32%
[2]; saline (pH = 5.5), B: after 24 h at room temperature
  stability (observed vs theoretical concentration): 0.13 ± 0.03%
[2]; saline (pH = 5.5), C: after 5 freeze-thaw cycles
  stability (observed vs theoretical concentration): 19.01 ± 1.61%
[2]; saline (pH = 5.5), D: after 10 days at −20 °C
  stability (observed vs theoretical concentration): 9.93 ± 1.76%
[3]; 2 ng/mL
  Percentage over Theoretical Concentration, Long-Term Stability: 97.25 ± 4.73%
  Percentage over Theoretical Concentration, Freeze/Thaw Stability: 99.02 ± 3.61%
  Percentage over Theoretical Concentration, Autosampler Stability: 97.2 ± 4.98%
  Percentage over Theoretical Concentration, Short-Term Stability: 96.57 ± 2.66%
[3]; 80 ng/mL
  Percentage over Theoretical Concentration, Long-Term Stability: 99.38 ± 0.49%
  Percentage over Theoretical Concentration, Freeze/Thaw Stability: 100.40 ± 0.20%
  Percentage over Theoretical Concentration, Autosampler Stability: 101.31 ± 2.00%
  Percentage over Theoretical Concentration, Short-Term Stability: 101.11 ± 1.95%
[3]; 160 ng/mL
  Percentage over Theoretical Concentration, Long-Term Stability: 96.62 ± 1.63%
  Percentage over Theoretical Concentration, Freeze/Thaw Stability: 98.44 ± 0.58%
  Percentage over Theoretical Concentration, Autosampler Stability: 97.45 ± 0.31%
  Percentage over Theoretical Concentration, Short-Term Stability: 97.64 ± 2.18%
[4]
  t1/2(β): 1.87 to 2.13 h
